Measurements from patent US8034948B2, “Method for resolving omeprazole salts” (Universite de Rouen, priority 2007, dated 2011).
Counter-ions that a name gives are not always drawn. One block for each molecule: values may come before it.

How the values were obtained:
[1] = Stability of the potassium salt solvates (ambient atmosphere / alcoholic medium with excess potassium hydroxide); format: physicochemical
[2] = Solubility measurements; format: physicochemical
Description: The solubility measurements are calculated, for a given temperature and for a given excess of potassium hydroxide, in the following way: [formula]

[3] = in an ethanol-water mixture in which ethanol predominates, with an excess of potassium hydroxide
[4] = excess of potassium hydroxide in alcohol/alcohol or alcohol/water solvent mixtures or pure alcohol

Stability [1, 3]: stable
Compound: COc1ccc2[nH]c([S+]([O-])Cc3ncc(C)c(OC)c3C)nc2c1 (racemic) [ethanol solvates of the potassium salt of racemic omeprazole]

Stability [1, 4]: stable
Solubility ([2]; absolute ethanol, 1.2 molar equivalents of potassium hydroxide, 26 °C): 1.3 % by weight
Solubility ([2]; absolute ethanol, 1.2 molar equivalents of potassium hydroxide, 30 °C): 1.7 % by weight
Solubility ([2]; absolute ethanol, 1.2 molar equivalents of potassium hydroxide, 33 °C): 2.2 % by weight
Solubility ([2]; ethanol/water (90/10% weight/weight), 1.2 molar equivalents of potassium hydroxide, 30 °C): 25 % by weight
Solubility (coordinates of the point L) ([2]; ethanol/water (93/7% weight/weight), 1.2 molar equivalents of potassium hydroxide, 34.4 °C): 20 % by weight
Solubility ([2]; ethanol/water azeotropic mixture, 1.2 molar equivalents of potassium hydroxide, 29 °C): 8.7 % by weight
Solubility ([2]; ethanol/water azeotropic mixture, 1.2 molar equivalents of potassium hydroxide, 31 °C): 9.1 % by weight
Solubility ([2]; ethanol/water azeotropic mixture, 1.2 molar equivalents of potassium hydroxide, 35 °C): 13.7 % by weight
Solubility of the salt (in words) ([2]; in ethanol (Example 7)): low
Compound: COc1ccc2[nH]c([S+]([O-])Cc3ncc(C)c(OC)c3C)nc2c1 (racemic) [racemic mixture]

Stability [1, 3]: stable
Compound: COc1ccc2nc([S@@+]([O-])Cc3ncc(C)c(OC)c3C)[nH]c2c1 [(S)-omeprazole, 5-methoxy-2-[(S)-[(4-methoxy-3,5-dimethyl-2-pyridinyl)methyl]sulphinyl]-1H-benzimidazole]

Stability [1, 4]: stable
Compound: COc1ccc2nc([S@@+]([O-])Cc3ncc(C)c(OC)c3C)[nH]c2c1 [pure enantiomer (S)-omeprazole, 5-methoxy-2-[(S)-[(4-methoxy-3,5-dimethyl-2-pyridinyl)methyl]sulphinyl]-1H-benzimidazole]
